These compounds were tested against Estrogen receptor beta (Homo sapiens, UniProt Q92731).
Chain of Estrogen receptor beta (Q92731 whole entry): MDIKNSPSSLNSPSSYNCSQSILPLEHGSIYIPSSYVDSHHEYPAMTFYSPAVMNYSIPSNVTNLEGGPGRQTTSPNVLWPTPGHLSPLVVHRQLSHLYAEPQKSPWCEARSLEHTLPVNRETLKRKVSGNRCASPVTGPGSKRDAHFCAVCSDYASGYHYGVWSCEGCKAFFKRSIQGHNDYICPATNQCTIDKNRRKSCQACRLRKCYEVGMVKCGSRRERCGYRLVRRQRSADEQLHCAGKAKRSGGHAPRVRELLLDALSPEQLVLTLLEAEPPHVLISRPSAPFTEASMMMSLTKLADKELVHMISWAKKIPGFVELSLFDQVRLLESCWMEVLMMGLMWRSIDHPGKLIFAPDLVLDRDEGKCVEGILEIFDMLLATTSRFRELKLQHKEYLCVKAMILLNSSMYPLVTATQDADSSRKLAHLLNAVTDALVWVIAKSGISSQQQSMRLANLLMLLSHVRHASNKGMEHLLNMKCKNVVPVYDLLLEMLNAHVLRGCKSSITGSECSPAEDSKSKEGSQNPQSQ
Description: Transcriptional potency (EC50) at Human estrogen receptor Beta

Row | EC50 [nM] | SMILES
1 | 110 | N#CC(c1ccc(O)cc1)C(C#N)c1cccc(O)c1 (stereo not given)
2 | 8 | CC(C#N)(Cc1ccc(O)cc1)c1ccc(O)cc1 (stereo not given)
3 | 21 | N#CC(C#N)(Cc1ccc(O)cc1)c1ccc(O)cc1
4 | 2.1 | CC#CC(Cc1ccc(O)cc1)c1ccc(O)cc1 (stereo not given)
5 | 0.14 | C[C@H](c1ccc(O)cc1)[C@@H](C#N)c1ccc(O)cc1
6 | 35 | CC(=O)C(Cc1ccc(O)cc1)c1ccc(O)cc1 (stereo not given)
7 | 0.37 | Cc1cc(O)ccc1CC(C#N)c1ccc(O)cc1 (stereo not given)
8 | 0.15 | CC[C@H](c1ccc(O)cc1)[C@@H](C#N)c1ccc(O)cc1
9 | 3.7 | C#CC(c1ccc(O)cc1)C(C#C)c1ccc(O)cc1 (racemic)
10 | 0.41 | N#CC(c1ccc(O)cc1)C(C#N)c1ccc(O)cc1 (stereo in doubt; 31a(dl))
11 | 30 | N#CC[C@H](Cc1ccc(O)cc1)c1ccc(O)cc1
12 | 2 | Oc1ccc(CC(c2ccc(O)cc2)C(F)(F)F)cc1 (stereo not given)
13 | 0.42 | N#CC(c1ccc(O)cc1)C(C#N)c1ccc(O)cc1 (stereo in doubt)
14 | 140 | N#C/C(=C\c1ccc(O)cc1)c1ccc(O)cc1
15 | 4.9 | COC(=O)C(Cc1ccc(O)cc1)c1ccc(O)cc1 (stereo not given)
16 | 160 | O=C(C(Cc1ccc(O)cc1)c1ccc(O)cc1)C(F)(F)F (stereo not given)
17 | 1.4 | C#CC(Cc1ccc(O)cc1)c1ccc(O)cc1 (stereo not given)
18 | 1.7 | Cc1cc(O)ccc1C(C#N)Cc1ccc(O)cc1 (stereo not given)
19 | 220 | N#C/C(=C/c1ccc(O)cc1)c1ccc(O)cc1
20 | 15 | Oc1ccc(CC(c2ccc(O)cc2)C(F)(F)C(F)(F)F)cc1 (stereo not given)
